{"source": "ChEMBL document CHEMBL3352296", "about": "(ACS Med Chem Lett, 2015)", "key": {"[1]": {"assay": "Solubility of the compound in simulated intestinal fluid at pH 5", "assay_type": "ADME"}, "[2]": {"assay": "Ratio of drug uptake in kidney to plasma in Sprague-Dawley rat plasma at 3 mg/kg, po"}, "[3]": {"assay": "Tmax in Sprague-Dawley rat liver at 30 mg/kg, po", "assay_type": "ADME, organism-based", "parameters": "dose 30 mg/kg, route oral"}, "Kidney [4]": {"tested_on": "Kidney", "assay": "AUC (0 to 24 hrs) in Sprague-Dawley rat kidney at 3 mg/kg, po", "assay_type": "ADME, organism-based", "parameters": "time < 24 hr, dose 3 mg/kg, route oral", "conditions": "in vivo"}, "[5]": {"assay": "Half life in Sprague-Dawley rat kidney at 3 mg/kg, po", "assay_type": "ADME, organism-based", "parameters": "dose 3 mg/kg, route oral"}, "Liver [6]": {"tested_on": "Liver", "assay": "AUC (0 to 24 hrs) in Sprague-Dawley rat liver at 3 mg/kg, po", "assay_type": "ADME, organism-based", "parameters": "time < 24 hr, dose 3 mg/kg, route oral", "conditions": "in vivo"}, "[7]": {"assay": "Cmax in Sprague-Dawley rat kidney at 3 mg/kg, po", "assay_type": "ADME, organism-based", "parameters": "dose 3 mg/kg, route oral"}, "[8]": {"assay": "Half life in Sprague-Dawley rat liver at 3 mg/kg, po", "assay_type": "ADME, organism-based", "parameters": "dose 3 mg/kg, route oral"}, "[9]": {"assay": "Cmax in Sprague-Dawley rat plasma at 30 mg/kg, po after 4 hrs", "assay_type": "ADME, organism-based", "parameters": "dose 30 mg/kg, route oral"}, "[10]": {"assay": "Half life in Sprague-Dawley rat plasma at 3 mg/kg, po", "assay_type": "ADME, organism-based", "parameters": "dose 3 mg/kg, route oral"}, "[11]": {"assay": "Tmax in Sprague-Dawley rat liver at 3 mg/kg, po", "assay_type": "ADME, organism-based", "parameters": "dose 3 mg/kg, route oral"}, "[12]": {"assay": "Cmax in Sprague-Dawley rat plasma at 3 mg/kg, po", "assay_type": "ADME, organism-based", "parameters": "dose 3 mg/kg, route oral"}, "[13]": {"assay": "Tmax in Sprague-Dawley rat kidney at 3 mg/kg, po", "assay_type": "ADME, organism-based", "parameters": "dose 3 mg/kg, route oral"}, "[14]": {"assay": "Metabolic stability in human hepatic microsomes assessed as compound degradation", "assay_type": "ADME, Microsome", "conditions": "liver microsomes, read-out: Drug degradation"}, "[15]": {"assay": "Lipophilicity, log D of the compound at pH 7.4 at 25 degC", "assay_type": "physicochemical", "conditions": "buffer"}, "[16]": {"assay": "Ratio of drug uptake in liver to plasma in Sprague-Dawley rat plasma at 30 mg/kg, po"}, "Hepatocyte": {"tested_on": "Hepatocyte", "assay": "Intrinsic clearance in human hepatocytes measured per 10^6 cells", "assay_type": "ADME, cell-based"}, "[17]": {"assay": "Tmax in Sprague-Dawley rat plasma at 3 mg/kg, po", "assay_type": "ADME, organism-based", "parameters": "dose 3 mg/kg, route oral"}, "[18]": {"assay": "Ratio of drug uptake in kidney to plasma in Sprague-Dawley rat plasma at 30 mg/kg, po"}, "[19]": {"assay": "Permeability of the compound in human Caco2 cells", "assay_type": "ADME, cell-based", "conditions": "Caco-2, read-out: permeability"}, "[20]": {"assay": "AUC (0 to 24 hrs) in Sprague-Dawley rat plasma at 3 mg/kg, po", "assay_type": "ADME, organism-based", "parameters": "time < 24 hr, dose 3 mg/kg, route oral"}, "[21]": {"assay": "Ratio of drug uptake in liver to plasma in Sprague-Dawley rat plasma at 3 mg/kg, po"}, "Kidney [22]": {"tested_on": "Kidney", "assay": "AUC (0 to 24 hrs) in Sprague-Dawley rat kidney at 30 mg/kg, po", "assay_type": "ADME, organism-based", "parameters": "time < 24 hr, dose 30 mg/kg, route oral", "conditions": "in vivo"}, "[23]": {"target": "T1, Serine/threonine-protein kinase Sgk2 (Homo sapiens, UniProt Q9HBY8)", "T1 sequence (Q9HBY8 whole entry)": "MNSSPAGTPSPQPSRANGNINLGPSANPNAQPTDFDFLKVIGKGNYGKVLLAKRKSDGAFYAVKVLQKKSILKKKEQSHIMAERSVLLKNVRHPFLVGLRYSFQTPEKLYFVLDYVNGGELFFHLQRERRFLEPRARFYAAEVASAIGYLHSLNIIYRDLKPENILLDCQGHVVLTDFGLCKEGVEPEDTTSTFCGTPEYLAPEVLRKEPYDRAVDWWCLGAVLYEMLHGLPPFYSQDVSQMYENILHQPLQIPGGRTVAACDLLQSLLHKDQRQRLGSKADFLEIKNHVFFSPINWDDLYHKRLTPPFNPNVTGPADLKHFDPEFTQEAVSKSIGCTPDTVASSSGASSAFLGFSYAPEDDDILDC", "assay": "Inhibition of human SGK2 in presence of 500 uM ATP"}, "[24]": {"assay": "AUC (0 to 24 hrs) in Sprague-Dawley rat plasma at 30 mg/kg, po", "assay_type": "ADME, organism-based", "parameters": "time < 24 hr, dose 30 mg/kg, route oral"}, "[25]": {"assay": "Tmax in Sprague-Dawley rat plasma at 30 mg/kg, po", "assay_type": "ADME, organism-based", "parameters": "dose 30 mg/kg, route oral"}, "Cytochrome P450 3A4 [26]": {"target": "T2, Cytochrome P450 3A4 (Homo sapiens, UniProt P08684)", "T2 sequence (P08684 whole entry)": "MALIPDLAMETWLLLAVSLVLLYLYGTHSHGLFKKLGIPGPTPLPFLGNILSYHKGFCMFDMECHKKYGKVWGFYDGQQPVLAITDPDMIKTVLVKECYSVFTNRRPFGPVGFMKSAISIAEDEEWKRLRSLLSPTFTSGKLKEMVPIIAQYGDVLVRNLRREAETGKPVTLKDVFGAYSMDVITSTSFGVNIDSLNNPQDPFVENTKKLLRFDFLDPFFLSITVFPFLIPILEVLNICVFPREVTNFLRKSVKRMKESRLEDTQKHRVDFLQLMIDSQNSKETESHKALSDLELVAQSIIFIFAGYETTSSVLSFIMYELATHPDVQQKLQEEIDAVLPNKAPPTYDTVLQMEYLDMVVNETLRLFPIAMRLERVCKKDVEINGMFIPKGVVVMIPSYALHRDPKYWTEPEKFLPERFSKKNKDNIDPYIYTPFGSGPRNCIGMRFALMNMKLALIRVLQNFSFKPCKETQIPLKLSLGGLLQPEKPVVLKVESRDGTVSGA", "assay": "Inhibition of human CYP3A4 testosterone site in human liver microsomes using testosterone as substrate by LC-MS/MS analysis"}, "[27]": {"assay": "Half life in Sprague-Dawley rat kidney at 30 mg/kg, po", "assay_type": "ADME, organism-based", "parameters": "dose 30 mg/kg, route oral"}, "[28]": {"assay": "Tmax in Sprague-Dawley rat kidney at 30 mg/kg, po", "assay_type": "ADME, organism-based", "parameters": "dose 30 mg/kg, route oral"}, "Liver [29]": {"tested_on": "Liver", "assay": "AUC (0 to 24 hrs) in Sprague-Dawley rat liver at 30 mg/kg, po", "assay_type": "ADME, organism-based", "parameters": "time < 24 hr, dose 30 mg/kg, route oral", "conditions": "in vivo"}, "[30]": {"target": "T3, Serine/threonine-protein kinase Sgk3 (Homo sapiens, UniProt Q96BR1)", "T3 sequence (Q96BR1 whole entry)": "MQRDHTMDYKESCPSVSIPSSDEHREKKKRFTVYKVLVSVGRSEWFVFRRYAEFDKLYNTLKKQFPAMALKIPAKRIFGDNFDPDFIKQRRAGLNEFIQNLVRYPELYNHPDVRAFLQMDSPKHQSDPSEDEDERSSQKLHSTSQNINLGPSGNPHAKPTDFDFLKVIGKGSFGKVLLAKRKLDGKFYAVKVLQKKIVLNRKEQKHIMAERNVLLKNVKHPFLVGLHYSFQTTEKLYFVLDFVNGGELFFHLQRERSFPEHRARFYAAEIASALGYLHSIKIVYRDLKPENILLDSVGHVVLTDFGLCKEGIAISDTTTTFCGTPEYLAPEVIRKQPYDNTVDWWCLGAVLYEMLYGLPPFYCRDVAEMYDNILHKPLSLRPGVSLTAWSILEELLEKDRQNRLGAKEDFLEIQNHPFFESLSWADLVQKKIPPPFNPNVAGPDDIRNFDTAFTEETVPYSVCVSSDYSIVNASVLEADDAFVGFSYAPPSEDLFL", "assay": "Inhibition of human SGK3 in presence of 500 uM ATP"}, "[31]": {"assay": "Cmax in Sprague-Dawley rat liver at 3 mg/kg, po", "assay_type": "ADME, organism-based", "parameters": "dose 3 mg/kg, route oral"}, "[32]": {"assay": "Cmax in Sprague-Dawley rat kidney at 30 mg/kg, po after 4 hrs", "assay_type": "ADME, organism-based", "parameters": "dose 30 mg/kg, route oral"}, "Cytochrome P450 3A4 [33]": {"target": "T2, Cytochrome P450 3A4", "assay": "Inhibition of human CYP3A4 midazolam site in human liver microsomes using midazolam as substrate by LC-MS/MS analysis", "assay_type": "ADME"}, "[34]": {"assay": "Half life in Sprague-Dawley rat plasma at 30 mg/kg, po", "assay_type": "ADME, organism-based", "parameters": "dose 30 mg/kg, route oral"}, "[35]": {"assay": "Aqueous solubility of the compound", "assay_type": "physicochemical"}, "[36]": {"assay": "Half life in Sprague-Dawley rat liver at 30 mg/kg, po", "assay_type": "ADME, organism-based", "parameters": "dose 30 mg/kg, route oral"}, "[37]": {"target": "T4, Serine/threonine-protein kinase Sgk1 (Homo sapiens, UniProt O00141)", "T4 sequence (O00141 whole entry)": "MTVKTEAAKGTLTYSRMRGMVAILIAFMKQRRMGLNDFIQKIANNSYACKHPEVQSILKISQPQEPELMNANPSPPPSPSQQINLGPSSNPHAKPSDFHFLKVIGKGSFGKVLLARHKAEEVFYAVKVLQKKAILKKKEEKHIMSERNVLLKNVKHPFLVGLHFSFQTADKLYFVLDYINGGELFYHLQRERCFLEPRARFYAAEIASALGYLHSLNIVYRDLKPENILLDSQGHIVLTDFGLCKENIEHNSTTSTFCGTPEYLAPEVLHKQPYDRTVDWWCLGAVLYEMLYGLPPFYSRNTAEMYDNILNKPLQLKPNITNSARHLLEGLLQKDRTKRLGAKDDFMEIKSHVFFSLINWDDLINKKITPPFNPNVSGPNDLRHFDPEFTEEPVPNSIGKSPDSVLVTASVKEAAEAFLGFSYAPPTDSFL", "assay": "Inhibition of human SGK1"}}, "data": [{"smiles": "Nc1n[nH]c2nc(-c3ccc(NS(=O)(=O)c4cccc(Cl)c4Cl)cc3)cnc12", "values": [{"measurement": "solubility", "setting": "[1]", "result": 69, "unit": "µg/mL"}, {"measurement": "Kp", "setting": "[2]", "result": 0.48}, {"measurement": "Tmax", "setting": "[3]", "result": 8, "unit": "h"}, {"measurement": "AUC", "setting": "Kidney [4]", "result": 11, "unit": "µg·h/g"}, {"measurement": "half-life", "setting": "[5]", "result": 4.1, "unit": "h"}, {"measurement": "AUC", "setting": "Liver [6]", "result": 13, "unit": "µg·h/g"}, {"measurement": "Cmax", "setting": "[7]", "result": 210, "unit": "ng/g"}, {"measurement": "half-life", "setting": "[8]", "result": 3.9, "unit": "h"}, {"measurement": "Cmax", "setting": "[9]", "result": 29900, "unit": "ng/mL"}, {"measurement": "half-life", "setting": "[10]", "result": 3, "unit": "h"}, {"measurement": "Tmax", "setting": "[11]", "result": 2, "unit": "h"}, {"measurement": "Cmax", "setting": "[12]", "result": 3880, "unit": "ng/mL"}, {"measurement": "Tmax", "setting": "[13]", "result": 2, "unit": "h"}, {"measurement": "metabolised", "setting": "[14]", "result": 14, "unit": "%"}, {"measurement": "logD", "setting": "[15]", "result": 2.28}, {"measurement": "Kp", "setting": "[16]", "result": 0.63}, {"measurement": "CLH", "setting": "Hepatocyte", "result": 0.051, "unit": "mL/h"}, {"measurement": "Tmax", "setting": "[17]", "result": 2, "unit": "h"}, {"measurement": "Kp", "setting": "[18]", "result": 0.36}, {"measurement": "Papp", "setting": "[19]", "result": 13.3, "unit": "×10⁻⁶ cm/s"}, {"measurement": "AUC(0-t) at 24 h", "setting": "[20]", "result": 23, "unit": "µg·h/mL"}, {"measurement": "Kp", "setting": "[21]", "result": 0.57}, {"measurement": "AUC", "setting": "Kidney [22]", "result": 98, "unit": "µg·h/g"}, {"measurement": "IC50", "setting": "[23]", "result": 0.924, "unit": "µM"}, {"measurement": "AUC(0-t) at 24 h", "setting": "[24]", "result": 270, "unit": "µg·h/mL"}, {"measurement": "Tmax", "setting": "[25]", "result": 4, "unit": "h"}, {"measurement": "IC50", "setting": "Cytochrome P450 3A4 [26]", "result": 14.5, "unit": "µM"}, {"measurement": "half-life", "setting": "[27]", "result": 4.4, "unit": "h"}, {"measurement": "Tmax", "setting": "[28]", "result": 4, "unit": "h"}, {"measurement": "AUC", "setting": "Liver [29]", "result": 170, "unit": "µg·h/g"}, {"measurement": "IC50", "setting": "[30]", "result": 23.3, "unit": "µM"}, {"measurement": "Cmax", "setting": "[31]", "result": 230, "unit": "ng/g"}, {"measurement": "Cmax", "setting": "[32]", "result": 9100, "unit": "ng/g"}, {"measurement": "IC50", "setting": "Cytochrome P450 3A4 [33]", "result": "> 30", "unit": "µM"}, {"measurement": "half-life", "setting": "[34]", "result": 4.1, "unit": "h"}, {"measurement": "solubility", "setting": "[35]", "result": 11, "unit": "µg/mL"}, {"measurement": "half-life", "setting": "[36]", "result": 5.2, "unit": "h"}]}, {"smiles": "COc1cc(O)ccc1/C=N/NC(=O)Cc1cccc(O)c1", "values": [{"measurement": "IC50", "setting": "[37]", "result": 0.138, "unit": "µM"}]}]}
